In paper PMC5218480 (PLoS ONE, 2017):

Tested on: MV-4-11 cells
Experiment: Gene expression microarray analysis (Affymetrix PrimeView) and GSEA
Type: cell-based, human
Parameters: RFU PODN (11730768_x_at) / Fold change /veh PODN (11730768_x_at) / RFU LINC00158 (11744669_a_at) / Fold change /veh LINC00158 (11744669_a_at) / RFU DUSP10 (11751237_a_at) / Fold change /veh DUSP10 (11751237_a_at) / RFU ID3 (11757404_x_at) / Fold change /veh ID3 (11757404_x_at) / RFU PLEKHG5 (11737974_s_at) / Fold change /veh PLEKHG5 (11737974_s_at) / RFU LRRC4B (11730491_at) / Fold change /veh LRRC4B (11730491_at) / RFU GIMAP4 (11747438_a_at) / Fold change /veh GIMAP4 (11747438_a_at) / RFU KRT8 (11758183_x_at) / Fold change /veh KRT8 (11758183_x_at) / RFU CNN1 (11734310_a_at) / Fold change /veh CNN1 (11734310_a_at) / RFU VPS37D (11726825_at) / Fold change /veh VPS37D (11726825_at) / RFU C10orf10 (11716522_x_at) / Fold change /veh C10orf10 (11716522_x_at) / RFU KIR2DL2 /// KIR2DL4 /// KIR2DL5A /// KIR2DL5B /// KIR2DS1 /// KIR2DS2 /// KIR2DS3 /// KIR2DS4 /// KIR3DL3 /// KIR3DL3 /// KIR3DS1 (11738374_at) / Fold change /veh KIR2DL2 /// KIR2DL4 /// KIR2DL5A /// KIR2DL5B /// KIR2DS1 /// KIR2DS2 /// KIR2DS3 /// KIR2DS4 /// KIR3DL3 /// KIR3DL3 /// KIR3DS1 (11738374_at) / RFU C1QL1 (11718748_at) / Fold change /veh C1QL1 (11718748_at) / RFU TMPRSS4 (11747572_a_at) / Fold change /veh TMPRSS4 (11747572_a_at) / RFU HAMP (11756126_x_at) / Fold change /veh HAMP (11756126_x_at) / RFU RNFT2 (11725882_a_at) / Fold change /veh RNFT2 (11725882_a_at) / RFU NR4A2 (11747474_a_at) / Fold change /veh NR4A2 (11747474_a_at) / RFU ABCC12 (11746883_a_at) / Fold change /veh ABCC12 (11746883_a_at) / RFU TMEM136 (11760407_x_at) / Fold change /veh TMEM136 (11760407_x_at) / RFU CLDN22 /// WWC2 (11732394_at) / Fold change /veh CLDN22 /// WWC2 (11732394_at) / RFU HLA-DPB1 (11760878_x_at) / Fold change /veh HLA-DPB1 (11760878_x_at) / RFU SPINT1 (11716480_a_at) / Fold change /veh SPINT1 (11716480_a_at) / RFU GAP43 (11754022_s_at) / Fold change /veh GAP43 (11754022_s_at) / RFU A4GNT (11735810_at) / Fold change /veh A4GNT (11735810_at) / RFU PRB3 (11715151_x_at) / Fold change /veh PRB3 (11715151_x_at) / RFU TUBB4B (11761932_at) / Fold change /veh TUBB4B (11761932_at) / RFU CAPN14 (11732068_a_at) / Fold change /veh CAPN14 (11732068_a_at) / RFU TMCC2 (11721928_a_at) / Fold change /veh TMCC2 (11721928_a_at) / RFU IRGQ (11745062_a_at) / Fold change /veh IRGQ (11745062_a_at) / RFU FAM174B (11720279_a_at) / Fold change /veh FAM174B (11720279_a_at) / RFU TMPRSS4 (11748680_a_at) / Fold change /veh TMPRSS4 (11748680_a_at) / RFU FAM212B (11763350_a_at) / Fold change /veh FAM212B (11763350_a_at) / RFU PLEKHG5 (11743358_a_at) / Fold change /veh PLEKHG5 (11743358_a_at) / RFU ZSCAN30 (11745921_a_at) / Fold change /veh ZSCAN30 (11745921_a_at) / RFU CMKLR1 (11741424_a_at) / Fold change /veh CMKLR1 (11741424_a_at) / RFU LOC101060620 /// MAPK8IP1 (11723275_at) / Fold change /veh LOC101060620 /// MAPK8IP1 (11723275_at) / RFU SPTSSB (11747773_x_at) / Fold change /veh SPTSSB (11747773_x_at) / RFU PRSS12 (11739890_at) / Fold change /veh PRSS12 (11739890_at) / RFU BIN1 (11741810_x_at) / Fold change /veh BIN1 (11741810_x_at) / RFU WNT11 (11732464_a_at) / Fold change /veh WNT11 (11732464_a_at) / RFU C10orf10 (11716521_a_at) / Fold change /veh C10orf10 (11716521_a_at) / RFU C5orf56 (11738089_at) / Fold change /veh C5orf56 (11738089_at) / RFU CYB561 (11721691_x_at) / Fold change /veh CYB561 (11721691_x_at) / RFU ANKRD19P (11752326_a_at) / Fold change /veh ANKRD19P (11752326_a_at) / RFU OR2T12 /// OR2T33 /// OR2T8 (11738714_s_at) / Fold change /veh OR2T12 /// OR2T33 /// OR2T8 (11738714_s_at) / RFU VCAN (11748164_a_at) / Fold change /veh VCAN (11748164_a_at) / RFU JSRP1 (11732532_at) / Fold change /veh JSRP1 (11732532_at) / RFU KRTAP10-11 (11738290_x_at) / Fold change /veh KRTAP10-11 (11738290_x_at) / RFU MYO3A (11730013_a_at) / Fold change /veh MYO3A (11730013_a_at) / RFU EBF3 (11725865_a_at) / Fold change /veh EBF3 (11725865_a_at) / RFU CAMK2N1 (11719241_x_at) / Fold change /veh CAMK2N1 (11719241_x_at) / RFU C5orf56 (11738088_a_at) / Fold change /veh C5orf56 (11738088_a_at) / RFU OLFML3 (11715873_a_at) / Fold change /veh OLFML3 (11715873_a_at) / RFU LOC100653217 /// NTM (11731650_a_at) / Fold change /veh LOC100653217 /// NTM (11731650_a_at) / RFU MAPK11 (11762145_a_at) / Fold change /veh MAPK11 (11762145_a_at) / RFU FIZ1 (11724087_x_at) / Fold change /veh FIZ1 (11724087_x_at) / RFU OASL (11726364_x_at) / Fold change /veh OASL (11726364_x_at) / RFU SOX15 (11748057_x_at) / Fold change /veh SOX15 (11748057_x_at) / RFU CD79A (11719716_a_at) / Fold change /veh CD79A (11719716_a_at) / RFU HIST1H1D (11736915_at) / Fold change /veh HIST1H1D (11736915_at) / RFU CASKIN2 (11723855_a_at) / Fold change /veh CASKIN2 (11723855_a_at) / RFU LOC730098 (11760151_x_at) / Fold change /veh LOC730098 (11760151_x_at) / RFU OR4N2 (11742367_at) / Fold change /veh OR4N2 (11742367_at) / RFU PRRT2 (11749266_a_at) / Fold change /veh PRRT2 (11749266_a_at) / RFU SNX32 (11753110_a_at) / Fold change /veh SNX32 (11753110_a_at) / RFU CDHR5 (11726645_a_at) / Fold change /veh CDHR5 (11726645_a_at) / RFU RCAN1 (11760418_a_at) / Fold change /veh RCAN1 (11760418_a_at) / RFU FAM167A (11723789_a_at) / Fold change /veh FAM167A (11723789_a_at) / RFU FAM26E (11764081_at) / Fold change /veh FAM26E (11764081_at) / RFU ISYNA1 (11749810_s_at) / Fold change /veh ISYNA1 (11749810_s_at) / RFU ACY1 (11761880_at) / Fold change /veh ACY1 (11761880_at) / RFU 11764098_at / Fold change /veh 11764098_at / RFU SAMD14 (11745864_x_at) / Fold change /veh SAMD14 (11745864_x_at) / RFU NPB (11741838_a_at) / Fold change /veh NPB (11741838_a_at) / RFU TMPRSS6 (11731388_a_at) / Fold change /veh TMPRSS6 (11731388_a_at) / RFU KRTAP10-2 (11738614_at) / Fold change /veh KRTAP10-2 (11738614_at) / RFU ARHGAP8 /// PRR5-ARHGAP8 (11727945_x_at) / Fold change /veh ARHGAP8 /// PRR5-ARHGAP8 (11727945_x_at) / RFU KRTAP5-7 /// NADSYN1 (11734609_at) / Fold change /veh KRTAP5-7 /// NADSYN1 (11734609_at) / RFU RASL12 (11751679_a_at) / Fold change /veh RASL12 (11751679_a_at) / RFU CDKN2B (11736163_a_at) / Fold change /veh CDKN2B (11736163_a_at) / RFU PRF1 (11729649_at) / Fold change /veh PRF1 (11729649_at) / RFU, ZNF638 /// ZNF638-IT1 / Fold change vs veh, ZNF638 /// ZNF638-IT1 / RFU, PANK3 / Fold change vs veh, PANK3 / RFU, SH3YL1 / Fold change vs veh, SH3YL1 / RFU, ZEB2 / Fold change vs veh, ZEB2 / RFU, NRIP1 / Fold change vs veh, NRIP1 / RFU, PTTG1IP / Fold change vs veh, PTTG1IP / RFU, CAPN2 / Fold change vs veh, CAPN2 / RFU, MED14 / Fold change vs veh, MED14 / RFU, SNORA58 / Fold change vs veh, SNORA58 / RFU, C1orf63 / Fold change vs veh, C1orf63 / RFU, LRRFIP1 / Fold change vs veh, LRRFIP1 / RFU, NDUFAF7 / Fold change vs veh, NDUFAF7 / RFU, SLC12A2 / Fold change vs veh, SLC12A2 / RFU, IBTK / Fold change vs veh, IBTK / RFU, ESF1 / Fold change vs veh, ESF1 / Fold change vs veh, TMEM50B / RFU, TAOK1 / Fold change vs veh, TAOK1 / RFU, ACBD3 / Fold change vs veh, ACBD3 / RFU, TMA16 / Fold change vs veh, TMA16 / RFU, RWDD3 / Fold change vs veh, RWDD3 / RFU, BCAT1 / Fold change vs veh, BCAT1 / RFU, EDEM3 / Fold change vs veh, EDEM3 / RFU, TMEM33 / Fold change vs veh, TMEM33 / RFU, WDR75 / Fold change vs veh, WDR75 / RFU, AHCTF1 / Fold change vs veh, AHCTF1 / RFU, TFRC / Fold change vs veh, TFRC / RFU, ZDHHC17 / Fold change vs veh, ZDHHC17 / RFU, NOM1 / Fold change vs veh, NOM1 / RFU, ARL8B / Fold change vs veh, ARL8B / RFU, ZBTB11 / Fold change vs veh, ZBTB11 / RFU, TAMM41 / Fold change vs veh, TAMM41 / RFU, KIAA1704 /// LOC100996395 / Fold change vs veh, KIAA1704 /// LOC100996395 / RFU, ING1 / Fold change vs veh, ING1 / RFU, TRMT61B / Fold change vs veh, TRMT61B / RFU, FUBP3 / Fold change vs veh, FUBP3 / RFU, TP53 / Fold change vs veh, TP53 / RFU, TNKS2 / Fold change vs veh, TNKS2 / RFU, ZFP14 / Fold change vs veh, ZFP14 / RFU, ACTR2 / Fold change vs veh, ACTR2 / RFU, PPP3R1 / Fold change vs veh, PPP3R1 / RFU, PIK3R1 / Fold change vs veh, PIK3R1 / RFU, HNRNPA1 / Fold change vs veh, HNRNPA1 / RFU, RNF170 / Fold change vs veh, RNF170 / RFU, ZNF28 / Fold change vs veh, ZNF28 / RFU, RNGTT / Fold change vs veh, RNGTT / RFU, OGT / Fold change vs veh, OGT / RFU, BRD1 / Fold change vs veh, BRD1 / RFU, MARS / Fold change vs veh, MARS / RFU, ZNF655 / Fold change vs veh, ZNF655 / RFU, FAHD1 / Fold change vs veh, FAHD1 / RFU, BDP1 / Fold change vs veh, BDP1 / RFU, LRRCC1 / Fold change vs veh, LRRCC1 / RFU, ARID1A / Fold change vs veh, ARID1A / RFU, ZNF146 / Fold change vs veh, ZNF146 / RFU, ZNF330 / Fold change vs veh, ZNF330 / RFU, GPN3 / Fold change vs veh, GPN3 / RFU, C9orf123 / Fold change vs veh, C9orf123 / RFU, N4BP2L2 / Fold change vs veh, N4BP2L2 / RFU, ARFIP1 / Fold change vs veh, ARFIP1 / RFU, FAM179B / Fold change vs veh, FAM179B / RFU, BCL10 / Fold change vs veh, BCL10 / RFU, UHRF1BP1L / Fold change vs veh, UHRF1BP1L / RFU, BET1 / Fold change vs veh, BET1 / RFU, CNOT2 / Fold change vs veh, CNOT2 / RFU, ZNF268 / Fold change vs veh, ZNF268 / Fold change vs veh, ZNF507 / RFU, DGCR2 / Fold change vs veh, DGCR2 / RFU, WDSUB1 / Fold change vs veh, WDSUB1 / Fold change vs veh, HSP90B1 /// MIR3652 / RFU, ADSS / Fold change vs veh, ADSS / RFU, GK / Fold change vs veh, GK / RFU, ZNF148 / Fold change vs veh, ZNF148 / RFU, TAF9 / Fold change vs veh, TAF9 / RFU, SLC1A5 / Fold change vs veh, SLC1A5 / RFU, SLMO2 / Fold change vs veh, SLMO2 / RFU, ABCC4 / Fold change vs veh, ABCC4 / RFU, LOC101060439 /// RAP1B / Fold change vs veh, LOC101060439 /// RAP1B / RFU, RFX7 / Fold change vs veh, RFX7 / RFU, GTPBP10 / Fold change vs veh, GTPBP10 / RFU, CNEP1R1 / Fold change vs veh, CNEP1R1 / RFU, BIVM-ERCC5 /// ERCC5 / Fold change vs veh, BIVM-ERCC5 /// ERCC5 / RFU, ILF3 / Fold change vs veh, ILF3 / RFU 11762660_at / Fold change /veh 11762660_at / RFU VCAN (11757783_s_at) / Fold change /veh VCAN (11757783_s_at) / RFU DDX43 (11728927_at) / Fold change /veh DDX43 (11728927_at) / RFU KRT8 (11758188_x_at) / Fold change /veh KRT8 (11758188_x_at) / RFU NKD1 (11759106_at) / Fold change /veh NKD1 (11759106_at) / RFU SRD5A1 (11742802_a_at) / Fold change /veh SRD5A1 (11742802_a_at) / RFU TPSAB1 /// TPSB2 (11721975_s_at) / Fold change /veh TPSAB1 /// TPSB2 (11721975_s_at) / RFU GSTM3 (11746129_a_at) / Fold change /veh GSTM3 (11746129_a_at) / RFU IL23R (11737362_x_at) / Fold change /veh IL23R (11737362_x_at) / RFU TMEM51 (11727254_a_at) / Fold change /veh TMEM51 (11727254_a_at) / RFU PIWIL2 (11732686_x_at) / Fold change /veh PIWIL2 (11732686_x_at) / RFU ORM1 (11744905_x_at) / Fold change /veh ORM1 (11744905_x_at) / RFU CCDC152 (11743942_at) / Fold change /veh CCDC152 (11743942_at) / RFU ECM1 (11717891_a_at) / Fold change /veh ECM1 (11717891_a_at) / RFU IL23R (11748794_a_at) / Fold change /veh IL23R (11748794_a_at) / RFU TNFAIP8L3 (11732012_x_at) / Fold change /veh TNFAIP8L3 (11732012_x_at) / RFU MBOAT4 (11741988_at) / Fold change /veh MBOAT4 (11741988_at) / RFU 11764193_at / Fold change /veh 11764193_at / RFU TMEM53 (11763286_at) / Fold change /veh TMEM53 (11763286_at) / RFU MAGEB2 (11727129_at) / Fold change /veh MAGEB2 (11727129_at) / RFU TMEM200A (11744735_a_at) / Fold change /veh TMEM200A (11744735_a_at) / RFU CCDC152 (11751479_a_at) / Fold change /veh CCDC152 (11751479_a_at) / RFU FAM211A (11726209_a_at) / Fold change /veh FAM211A (11726209_a_at) / RFU RGS16 (11746705_a_at) / Fold change /veh RGS16 (11746705_a_at) / RFU VCAN (11755009_s_at) / Fold change /veh VCAN (11755009_s_at) / RFU RHOB (11743442_s_at) / Fold change /veh RHOB (11743442_s_at) / RFU RGS16 (11720943_a_at) / Fold change /veh RGS16 (11720943_a_at) / RFU RGS16 (11720944_at) / Fold change /veh RGS16 (11720944_at) / RFU, VPS4B / Fold change vs veh, VPS4B / RFU, CREB1 / Fold change vs veh, CREB1 / RFU, DNAJC13 / Fold change vs veh, DNAJC13 / RFU, GNAQ / Fold change vs veh, GNAQ / RFU, CDK5R1 / Fold change vs veh, CDK5R1 / RFU, ZRANB3 / Fold change vs veh, ZRANB3 / RFU, CUL4A / Fold change vs veh, CUL4A / RFU, CCNY / Fold change vs veh, CCNY / RFU, UFL1 / Fold change vs veh, UFL1 / RFU, COG3 / Fold change vs veh, COG3 / RFU, DIAPH2 / Fold change vs veh, DIAPH2 / RFU, SKA2 / Fold change vs veh, SKA2 / RFU, AFF3 / Fold change vs veh, AFF3 / RFU, LMF1 / Fold change vs veh, LMF1 / RFU, IPO11 / Fold change vs veh, IPO11 / RFU, DFFB / Fold change vs veh, DFFB / RFU, FOXP1 / Fold change vs veh, FOXP1 / RFU, CARD8 / Fold change vs veh, CARD8 / RFU, STRN3 / Fold change vs veh, STRN3 / RFU, ADK / Fold change vs veh, ADK / RFU, RASSF2 / Fold change vs veh, RASSF2 / RFU, WIPF1 / Fold change vs veh, WIPF1 / RFU, LARP1B / Fold change vs veh, LARP1B / RFU, RASA1 / Fold change vs veh, RASA1 / RFU, RB1 / Fold change vs veh, RB1 / RFU, PPFIA1 / Fold change vs veh, PPFIA1 / RFU, MAT2A / Fold change vs veh, MAT2A / RFU, CCT5 / Fold change vs veh, CCT5 / RFU, WDR92 / Fold change vs veh, WDR92 / RFU, CUX1 / Fold change vs veh, CUX1 / RFU, TTC7A / Fold change vs veh, TTC7A / RFU, TMEM135 / Fold change vs veh, TMEM135 / RFU, DEPTOR / Fold change vs veh, DEPTOR / RFU, CPM / Fold change vs veh, CPM / RFU, DNAJB6 / Fold change vs veh, DNAJB6 / RFU, CACNA2D3 / Fold change vs veh, CACNA2D3 / RFU, DTX4 / Fold change vs veh, DTX4 / RFU, TFCP2 / Fold change vs veh, TFCP2 / RFU, GMCL1 /// GMCL1P1 / Fold change vs veh, GMCL1 /// GMCL1P1 / RFU, AEBP2 / Fold change vs veh, AEBP2 / RFU, SNHG1 /// SNORD22 /// SNORD25 /// SNORD26 /// SNORD27 /// SNORD28 /// SNORD29 /// SNORD31 / Fold change vs veh, SNHG1 /// SNORD22 /// SNORD25 /// SNORD26 /// SNORD27 /// SNORD28 /// SNORD29 /// SNORD31 / Fold change (Aza/veh), C12orf56 (ProbeSet 11735607_a_at) / Fold change (ACY-1035/veh), C12orf56 (ProbeSet 11735607_a_at) / Fold change (Aza/veh), FGFR1OP (ProbeSet 11751329_s_at) / Fold change (ACY-1035/veh), FGFR1OP (ProbeSet 11751329_s_at) / Fold change (Aza/veh), VPS36 (ProbeSet 11739960_a_at) / Fold change (ACY-1035/veh), VPS36 (ProbeSet 11739960_a_at) / RFU SYPL1 (11715823_x_at) / Fold change /veh SYPL1 (11715823_x_at) / RFU IGFBP7 (11715501_s_at) / Fold change /veh IGFBP7 (11715501_s_at) / RFU REEP3 (11722064_at) / Fold change /veh REEP3 (11722064_at) / RFU IGLL1 (11728026_x_at) / Fold change /veh IGLL1 (11728026_x_at): dose or concentration left out as unconfirmed
Settings: MV-4-11 cells, 48 hours

Nc1ccc(-c2cccs2)cc1NC(=O)c1ccc2c(c1)cc(C1CC1)n2CCN1CCOCC1 [ACY-1035]
Fold change /veh C5orf56 (11738089_at): 1.04
